This passage reports EC50 and IC50 results from patent US20250320213A1, “Nitrogen-Containing Heterocyclic Compounds” (Pfizer Inc., priority 2024, published 2025).

The target in one assay is T1, STAT6 (Homo sapiens, UniProt P42226).
T1 construct: stably transfected HaCaT keratinocyte cell line, which expresses NanoLuc luciferase reporter gene under the transcriptional control of the STAT6 responsive promoter; endogenous in cells; host or cells: HaCaT keratinocyte reporter cell line (stably transfected with a NanoLuc reporter)
T1 sequence (P42226 1-847): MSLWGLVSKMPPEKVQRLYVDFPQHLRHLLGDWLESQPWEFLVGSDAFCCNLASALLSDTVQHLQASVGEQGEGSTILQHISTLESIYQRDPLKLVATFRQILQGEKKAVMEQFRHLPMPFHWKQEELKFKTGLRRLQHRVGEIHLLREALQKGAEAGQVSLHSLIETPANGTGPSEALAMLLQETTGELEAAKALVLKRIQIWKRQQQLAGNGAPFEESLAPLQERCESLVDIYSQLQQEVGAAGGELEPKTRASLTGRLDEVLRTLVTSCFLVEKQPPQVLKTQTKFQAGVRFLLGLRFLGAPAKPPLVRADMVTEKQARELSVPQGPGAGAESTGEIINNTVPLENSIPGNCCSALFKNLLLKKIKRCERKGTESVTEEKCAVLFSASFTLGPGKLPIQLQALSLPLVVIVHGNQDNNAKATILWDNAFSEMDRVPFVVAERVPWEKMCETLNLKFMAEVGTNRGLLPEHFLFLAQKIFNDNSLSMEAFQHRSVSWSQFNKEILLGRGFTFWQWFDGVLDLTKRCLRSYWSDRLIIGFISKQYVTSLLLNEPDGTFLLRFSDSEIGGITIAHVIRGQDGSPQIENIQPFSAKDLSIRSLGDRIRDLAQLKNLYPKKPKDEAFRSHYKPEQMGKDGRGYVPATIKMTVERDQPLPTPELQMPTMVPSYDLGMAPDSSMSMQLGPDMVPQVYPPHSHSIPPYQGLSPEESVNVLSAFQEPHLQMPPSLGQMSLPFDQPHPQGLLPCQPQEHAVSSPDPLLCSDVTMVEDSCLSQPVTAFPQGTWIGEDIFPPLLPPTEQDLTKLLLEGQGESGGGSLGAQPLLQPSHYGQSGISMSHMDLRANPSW
Put plainly: STAT6 Reporter Luciferase Assay (IL-13 stimulated HaCaT keratinocyte NanoLuc reporter cells). The settings on record: IL-13 stimulated HaCaT STAT6 NanoLuc reporter cells; read-out: Reporter EC50. It is filed as cell-based. In a few lines: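 IL-13 (0.12 nM, 4 h) stimulated STAT6 reporter activity in HaCaT cells after a 2 h compound pre-incubation; NanoLuc signal was measured.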

Assay [1] relates to CCL17 secretion in peripheral human whole blood. Put plainly: Human Whole Blood (HWB) CCL17 TR-FRET Assay (IL-13 stimulated CCL17 secretion). It counts as cell-based. As to conditions: human whole blood, IL-13 stimulated. In outline:
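IC50 comes from serum CCL17 measured by a TR-FRET sandwich assay (16 h at room temperature, 665/615 nm ratio). Beforehand, blood in sodium heparin was exposed to an 11-point, 3-fold compound series for 2 h at 37°C and then to 10 ng/mL IL-13 for 48 h.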
In general terms: Time-resolved FRET reads energy transfer from a long-lived donor to a nearby acceptor.

Bounds are passed on as bounds.

Broadly, the EC50 is the concentration that produces a half-maximal response. In general, IC50 refers to the concentration at which inhibition is half-maximal. A low value points to greater potency in that assay. For the compound `CC(C)n1nc(C(=O)NCc2ccc(NC(=O)N(C)C)cc2)c2c1CCN(c1ccc(C3CCCO3)cn1)C2` (single isomer, unassigned) [Example 361, rel-(R or S)-N-(4-(3,3-dimethylureido)benzyl)-1-isopropyl-5-(5-(tetrahydrofuran-2-yl)pyridin-2-yl)-4,5,6,7-tetrahydro-1H-pyrazolo[4,3-c]pyridine-3-carboxamide], the EC50 on STAT6 came out at 158 nM. This compound also came in with an IC50 in assay [1] (Homo sapiens, 48 h) greater than 4080 nM.

As for `CC(C)n1nc(C(=O)NCc2ccc(NC(=O)N(C)C)cc2)c2c1CCN(c1ccc(C3CCCO3)cn1)C2` (single isomer, unassigned) [Example 362, rel-(R or S)-N-(4-(3,3-dimethylureido)benzyl)-1-isopropyl-5-(5-(tetrahydrofuran-2-yl)pyridin-2-yl)-4,5,6,7-tetrahydro-1H-pyrazolo[4,3-c]pyridine-3-carboxamide], the EC50 on STAT6 is 838 nM. In assay [1] (48 hours), the IC50 is greater than 3490 nM.

Consider `CN(C)C(=O)Nc1ccc(CNC(=O)c2nn(C)c3c2CN(c2ccc(C(=O)N(C)C)cn2)CC3C(F)(F)F)cc1` (single isomer, unassigned) [Example 391, rel-(R or S)-5-(5-(dimethylcarbamoyl)pyridin-2-yl)-N-(4-(3,3-dimethylureido)benzyl)-1-methyl-7-(trifluoromethyl)-4,5,6,7-tetrahydro-1H-pyrazolo[4,3-c]pyridine-3-carboxamide], for which, on STAT6, the EC50 came out at 740 nM. The same compound yielded an IC50 in assay [1] (Homo sapiens, 48 h) of 2170 nM.

For the compound `CN(C)C(=O)Nc1ccc(CNC(=O)c2nn(C)c3c2CN(c2ncc(C(=O)N(C)C)cn2)CC3C(F)(F)F)cc1` (single isomer, unassigned) [Example 392, rel-(R or S)-5-(5-(dimethylcarbamoyl)pyrimidin-2-yl)-N-(4-(3,3-dimethylureido)benzyl)-1-methyl-7-(trifluoromethyl)-4,5,6,7-tetrahydro-1H-pyrazolo[4,3-c]pyridine-3-carboxamide], on STAT6, the EC50 was 568 nM. Also, the IC50 in assay [1] (Homo sapiens, 48 h) was found to be 1080 nM.

`CC(C)n1nc(C(=O)NCc2ccc(NC(=O)N(C)C)cc2)c2c1CCN(c1ccc(C3CCCCO3)cn1)C2` (single isomer, unassigned) [Example 393, rel-(R or S)-N-(4-(3,3-dimethylureido)benzyl)-1-isopropyl-5-(5-(tetrahydro-2H-pyran-2-yl)pyridin-2-yl)-4,5,6,7-tetrahydro-1H-pyrazolo[4,3-c]pyridine-3-carboxamide]: the EC50 on STAT6 is greater than 8750 nM. The compound also displayed an IC50 in assay [1] (Homo sapiens, 48 h) greater than 30000 nM.

For `CC(C)n1nc(C(=O)NCc2ccc(NC(=O)N(C)C)cc2)c2c1CCN(c1ccc(C3CCCCO3)cn1)C2` (single isomer, unassigned) [Example 394, rel-(R or S)-N-(4-(3,3-dimethylureido)benzyl)-1-isopropyl-5-(5-(tetrahydro-2H-pyran-2-yl)pyridin-2-yl)-4,5,6,7-tetrahydro-1H-pyrazolo[4,3-c]pyridine-3-carboxamide], on STAT6, the EC50 was greater than 7660 nM. The IC50 in assay [1] (48 hours) was greater than 30000 nM.

Turning to `CCc1nc(C(=O)NCc2ccc(NC(=O)N(C)C)cc2)c2n1C(C)CN(c1ccc(C(=O)N(C)C)cc1)C2` (single isomer, unassigned) [Example 428, rel-(R or S)-7-(4-(dimethylcarbamoyl)phenyl)-N-(4-(3,3-dimethylureido)benzyl)-3-ethyl-5-methyl-5,6,7,8-tetrahydroimidazo[1,5-a]pyrazine-1-carboxamide], on STAT6, the EC50 amounted to 17 nM. The same compound gave an IC50 in assay [1] (48 hours) of 140 nM.

For `CCc1nc(C(=O)NCc2ccc(NC(=O)N(C)C)cc2)c2n1C(C)CN(c1ccc(C(=O)N(C)C)cc1)C2` (single isomer, unassigned) [Example 429, rel-(R or S)-7-(4-(dimethylcarbamoyl)phenyl)-N-(4-(3,3-dimethylureido)benzyl)-3-ethyl-5-methyl-5,6,7,8-tetrahydroimidazo[1,5-a]pyrazine-1-carboxamide], at STAT6, the EC50 worked out at 1 nM. In assay [1] (48 hours), this compound had an IC50 of 6 nM.

In the case of `C[C@H]1c2c(C(=O)NCc3ccc(NC(=O)N(C)C)cc3)nn(C)c2CCN1c1ccc(C(=O)N(C)C)cn1` (single isomer, unassigned) [Example 444], the EC50 on STAT6 came to 158 nM. Besides, the IC50 in assay [1] (Homo sapiens, 48 h) was determined as 1380 nM.

For `C[C@@H]1c2c(C(=O)NCc3ccc(NC(=O)N(C)C)cc3)nn(C)c2CCN1c1ccc(C(=O)N(C)C)cn1` (single isomer, unassigned) [Example 445], the EC50 at STAT6 stood at 2 nM. For the same compound, the IC50 in assay [1] (Homo sapiens, 48 h) turned out to be 21 nM.

For the compound `CCn1nc(C(=O)NCc2ccc(NC(=O)N(C)C)cc2)c2c1[C@H](C)[C@@H](C)N(c1ncc(C(=O)N(C)C)cn1)C2` (single isomer, unassigned) [Example 446], on STAT6, the EC50 was found to be 15 nM. In addition, the IC50 in assay [1] (Homo sapiens, 48 h) is 80 nM.

For `CCn1nc(C(=O)NCc2ccc(NC(=O)N(C)C)cc2)c2c1[C@@H](C)[C@H](C)N(c1ncc(C(=O)N(C)C)cn1)C2` (single isomer, unassigned) [Example 447], the EC50 on STAT6 was found to be 0.4 nM. The compound further returned an IC50 in assay [1] (Homo sapiens, 48 h) greater than 413 nM.

Consider `CC(C)n1nc(C(=O)NCc2ccc(NC(=O)N(C)C)cc2)c2c1[C@H](C)[C@@H](C)N(c1ncc(C(=O)N(C)C)cn1)C2` (single isomer, unassigned) [Example 448], for which the EC50 at STAT6 is 13 nM. The IC50 in assay [1] (Homo sapiens, 48 h) is greater than 30000 nM.

Take `CC(C)n1nc(C(=O)NCc2ccc(NC(=O)N(C)C)cc2)c2c1[C@@H](C)[C@H](C)N(c1ncc(C(=O)N(C)C)cn1)C2` (single isomer, unassigned) [Example 449]: on STAT6, the EC50 was 0.2 nM. This compound gave an IC50 in assay [1] (Homo sapiens, 48 h) of 4 nM.

`CC(C)n1nc(C(=O)NCc2ccc(NC(=O)N(C)C)cc2)c2c1C(C(F)(F)F)CN(c1ncc(C(=O)N(C)C)cn1)C2` (single isomer, unassigned) [Example 461, rel-(R or S)-5-(5-(dimethylcarbamoyl)pyrimidin-2-yl)-N-(4-(3,3-dimethylureido)benzyl)-1-isopropyl-7-(trifluoromethyl)-4,5,6,7-tetrahydro-1H-pyrazolo[4,3-c]pyridine-3-carboxamide]: at STAT6, the EC50 is 0.2 nM. The IC50 in assay [1] (48 hours) was less than 1 nM.

With `CC(C)n1nc(C(=O)NCc2ccc(NC(=O)N(C)C)cc2)c2c1C(C(F)(F)F)CN(c1ncc(C(=O)N(C)C)cn1)C2` (single isomer, unassigned) [Example 462, rel-(R or S)-5-(5-(dimethylcarbamoyl)pyrimidin-2-yl)-N-(4-(3,3-dimethylureido)benzyl)-1-isopropyl-7-(trifluoromethyl)-4,5,6,7-tetrahydro-1H-pyrazolo[4,3-c]pyridine-3-carboxamide], the EC50 at STAT6 stood at 38.7 nM. In assay [1] (48 hours), the IC50 was 376 nM.

As to `CCn1nc(C(=O)NCc2ccc(NC(=O)N(C)C)cc2)c2c1C(C(F)(F)F)CN(c1ncc(C(=O)N(C)C)cn1)C2` (single isomer, unassigned) [Example 464, rel-(R or S)-5-(5-(dimethylcarbamoyl)pyrimidin-2-yl)-N-(4-(3,3-dimethylureido)benzyl)-1-ethyl-7-(trifluoromethyl)-4,5,6,7-tetrahydro-1H-pyrazolo[4,3-c]pyridine-3-carboxamide], the EC50 at STAT6 came out at 0.2 nM. Besides, the midpoint of inhibition in assay [1] (48 hours), the IC50, lay at 2 nM.

Regarding `CCn1nc(C(=O)NCc2ccc(NC(=O)N(C)C)cc2)c2c1C(C(F)(F)F)CN(c1ncc(C(=O)N(C)C)cn1)C2` (single isomer, unassigned) [Example 465, rel-(R or S)-5-(5-(dimethylcarbamoyl)pyrimidin-2-yl)-N-(4-(3,3-dimethylureido)benzyl)-1-ethyl-7-(trifluoromethyl)-4,5,6,7-tetrahydro-1H-pyrazolo[4,3-c]pyridine-3-carboxamide], the EC50 on STAT6 amounted to 51.8 nM. The compound further had an IC50 in assay [1] (48 hours) of 682 nM.

On to `CCn1nc(C(=O)NCc2ccc(C(=O)NC)cc2)c2c1C(C(F)(F)F)CN(c1ccc(C(=O)N(C)C)cn1)C2` (single isomer, unassigned) [Example 467, rel-(R or S)-5-(5-(dimethylcarbamoyl)pyridin-2-yl)-1-ethyl-N-(4-(methylcarbamoyl)benzyl)-7-(trifluoromethyl)-4,5,6,7-tetrahydro-1H-pyrazolo[4,3-c]pyridine-3-carboxamide], for which the EC50 on STAT6 worked out at 315 nM. Moreover, in assay [1] (48 hours), the IC50 worked out at 2500 nM.
